Read-outs that look alike come from different tables or passages of the source.
Experiments:
[1] = test system: LPS-induced NO production in the murine macrophage cell line (RAW 264.7 cells); experiment: Inhibition of LPS-induced NO production (Griess reagent); assay type: cell-based; conditions: Mus musculus, read-out: IC50 against LPS-induced NO production
Experimental: (§1) The nitrite/nitrate oxidized from NO was detected by the Griess reagent as previously reported with slight modifications. The murine macrophage cell line (RAW 264.7 cells) were seeded in 96-well plates at a density of 1 × 10^5 cells/well and preincubated for 12 h. The tested compounds were dissolved in dimethylsulfoxide (DMSO) and diluted with Dulbecco’s Modified Eagle Medium (DMEM) medium to a final concentration (final DMSO concentration <0.1% in all assays). Indomethacin was used as the positive control. Cells were stimulated with 1µg/mL of lipopolysaccharide (LPS, Sigma, St. Louis, MO, USA) with or without tested compounds for 24 h. Then culture supernatant was mixed with an equal volume of Griess reagent I and II (Beyotime, Shanghai, China), and measured at 540 nm using a microplate reader (Bio-Rad Laboratories, Inc., Kyoto, Japan). Cell viability was evaluated using MTT assay.

[2] = Cytotoxicity / cell viability by MTT assay; assay type: cell-based, murine; conditions: mouse, RAW 264.7 cells, MTT assay
Experimental: as §1

[3] = test system: RAW 264.7 cells; experiment: Cytotoxicity / cell viability by MTT assay; assay type: cell-based, murine; conditions: CC50 (MTT) / IC50 (NO production)
Experimental: as §1

[4] = test system: inducible nitric oxide synthase (iNOS) mRNA; experiment: Real-time PCR, iNOS mRNA expression in LPS-stimulated RAW 264.7 cells; assay type: cell-based, murine; conditions: LPS (1 μg/mL) 12 h, 1 h pretreatment, 1, 2, 4 μM, RT-PCR
Experimental: (§2) Figure 4 RAW 264.7 murine macrophage cells were pre-incubated for 12h, and then cells were pretreated with compound 9 at the indicated concentration for 1 h and incubated with LPS (1 μg/mL) for 12h (real-time PCR). The effect of compound 9 on the mRNA expressions of inducible nitric oxide synthase (iNOS) (A), cyclooxygenase-2 (COX-2)(B), tumor necrosis factor (TNF)-α (C), interleukin (IL)-6 (D), and IL-1β (E) were detected by real-time PCR. The data represent the mean values ± SD of three experiments, * p < 0.05, ** p < 0.01 compared to LPS-treated group.
(§3) RAW264.7 cells were placed in a 6-well plate at a density of 1 × 10^6 cells/well and incubated for 12 h. Cultured cells were pretreated with compound 9 (1, 2, 4 μM/L) for 1 h and incubated with LPS (1 μg/mL) for 12 h. RNA was extracted with Trizol Reagent (Takara Bio Inc., Otsu, Japan) according to the manufacturer’s instructions, and cDNA was reverse transcribed from total RNA using a Superscript III system (Takara Bio Inc., Otsu, Japan). PCR amplification was carried out using PikoReal™ (Thermo Fisher Scientific, MA, US) and specific primers. The optimal conditions for PCR amplification of the cDNA were established by following the manufacturer’s instructions. Relative gene expression was calculated using the comparative Ct method (2^−ΔΔCt) with glyceraldehyde-3-phosphate dehydrogenase (GAPDH) as an internal control. […]

[5] = test system: IL-6 mRNA; experiment: Real-time PCR, IL-6 mRNA expression in LPS-stimulated RAW 264.7 cells; assay type: cell-based, murine
Experimental: as §2, §3

[6] = test system: interleukin (IL)-1β mRNA; experiment: Real-time PCR, IL-1β mRNA expression in LPS-stimulated RAW 264.7 cells; assay type: cell-based, murine
Experimental: as §2, §3

[7] = test system: cyclooxygenase-2 (COX-2) mRNA; experiment: Real-time PCR, COX-2 mRNA expression in LPS-stimulated RAW 264.7 cells; assay type: cell-based, murine; conditions: LPS (1 μg/mL) 12 h, 1 h pretreatment, 1, 2, 4 μM, RT-PCR
Experimental: as §2, §3

[8] = test system: tumor necrosis factor (TNF)-α mRNA; experiment: Real-time PCR, TNF-α mRNA expression in LPS-stimulated RAW 264.7 cells; assay type: cell-based, murine
Experimental: as §2, §3

[9] = RAW264.7, RAW 264.7 cells, LPS 1 µg/mL, 24 h, means ± SD, n = 3
[10] = RAW 264.7 macrophage cells, tested at 50 μM, read-out: CC50 (cytotoxicity, class symbol)
[11] = RAW 264.7 macrophage cells, means ± SD, n = 3, read-out: CC50
[12] = 2.0 μM, compared with the control groups
[13] = LPS (1 μg/mL) 12 h, 1 h pretreatment, 1, 2, 4 μM, RT-PCR

COC1=CC(=O)c2c(O)c(C)c3c(c2C1=O)OC(C)C3 (stereo not shown) [Compound 3, anhydrojavanicin]
IC50 [1, 9]: 16 ± 0.2 µM | CC50 at 24 h ([2]; tested at 50 μM, read-out: CC50 (cytotoxicity, class symbol)): > 50 µM

COc1ccc2c(c1)c(CC(=O)O)c(C)n2C(=O)c1ccc(Cl)cc1 [Indomethacin, reference compound]
IC50 [1, 9]: 26.3 ± 0.6 µM

COC1=CC(=O)c2c(O)c3c(c(O)c2C1=O)C=C(C)OC3 [Compound 6, anhydrofusarubin]
IC50 ([1]; RAW264.7, 24 h): 5.2 ± 0.1 µM | CC50 at 24 h [2, 10]: > 50 µM

COC1=CC(=O)c2c(O)c(C)c(CC(C)O)c(O)c2C1=O (stereo not shown) [Compound 11, solaniol]
IC50 [1, 9]: 15.5 ± 0.6 µM | CC50 at 24 h ([2]; means ± SD, n = 3, read-out: CC50): 59.2 ± 1.5 µM | SI (selectivity index, CC50/IC50) [3]: 3.8

CCc1c(OC)cc2c(c1O)C(=O)C=C(OC)C2=O [Compound 8, 6-ethyl-2,7-dimethoxyjuglone]
IC50 [1, 9]: 7.7 ± 0.3 µM | CC50 at 24 h [2, 10]: > 50 µM

COC1=CC(=O)c2c(cc(OC)c(C(C)O)c2O)C1=O (stereo not shown) [Compound 10, 5-hydroxy-6-(1-hydroxyethyl)-2,7-dimethoxy-1,4-naphthalenedione]
IC50 [1, 9]: 7.5 ± 0.2 µM | CC50 at 24 h [2, 11]: 15.8 ± 0.4 µM | SI (selectivity index, CC50/IC50) [3]: 2.1

COC1=CC(=O)c2c(cc(OC)c(C(C)OC(C)=O)c2O)C1=O (stereo not shown) [Compound 9, 6-[1-(acetyloxy)ethyl]-5-hydroxy-2,7-dimethoxy-1,4-naphthalenedione]
effect on iNOS mRNA expression [4]: apparently reduced | inhibition of IL-6 mRNA expression [5, 12]: about 80% | effect on IL-6 mRNA expression [5, 13]: apparently reduced | IC50 [1, 9]: 1.7 ± 0.2 µM | inhibition of IL-1β mRNA expression [6, 12]: about 80% | effect on IL-1β mRNA expression [6, 13]: apparently reduced | effect on COX-2 mRNA expression [7]: apparently reduced | CC50 at 24 h [2, 11]: 50.3 ± 1.5 µM | SI (selectivity index, CC50/IC50) [3]: 29.6 | inhibition of TNF-α mRNA expression [8, 12]: about 80% | effect on TNF-α mRNA expression [8, 13]: apparently reduced

COC1=CC(=O)c2c(O)c(C)c3cc(C)oc3c2C1=O [Compound 5, anhydrojavanicin]
IC50 [1, 9]: 11.2 ± 0.3 µM | CC50 at 24 h [2, 10]: > 50 µM

COC1=CC(=O)c2c(O)c(C)c(CC(C)=O)c(O)c2C1=O [Compound 12, javanicin]
IC50 [1, 9]: 5.6 ± 0.3 µM | CC50 at 24 h [2, 11]: 48.4 ± 1.3 µM | SI (selectivity index, CC50/IC50) [3]: 8.6

COC1=CC(=O)c2c(O)c(CO)c3c(c2C1=O)OC(C)C3 (stereo not shown) [Compound 4, 2,3-dihydro-5-hydroxy-4-hydroxymethyl-8-methoxy-2-methylnaphtho[1,2-b]furan-6,9-dione]
IC50 [1, 9]: 22.6 ± 0.5 µM | CC50 at 24 h [2, 10]: > 50 µM

COc1cc(O)c2c(c1)C(=O)C(C[C@H](C)O)=C(C)C2=O [Compound 1, Talanaphthoquinone A]
IC50 [1, 9]: 3.9 ± 0.5 µM | CC50 at 24 h [2, 11]: 30.7 ± 0.5 µM | SI (selectivity index, CC50/IC50) [3]: 7.9

COC1=CC(=O)c2c(O)c(C)c3c(c2C1=O)OC(CO)C3 (stereo not shown) [Compound 2, Talanaphthoquinone B]
melting point: 157.7 to 159.3 °C | IC50 [1, 9]: 49.7 ± 1.5 µM | CC50 at 24 h [2, 10]: > 50 µM

From publication PMC7037671, “Naphthoquinone Derivatives with Anti-Inflammatory Activity from Mangrove-Derived Endophytic Fungus Talaromyces sp. SK-S009” (Molecules, 2020)
